Data published in patent US20240270821A1, “GIP/GLP1/GCG TRI-RECEPTOR AGONISTS AND USES THEREOF” (priority 2023, published 2024).
Starred links: 1 amine or outer side, 2 acyl side, 3 side chain; linkers in the order of their positions; H or OH if unused. Non-standard residues stand in square brackets, D forms with d. Groups on a side chain read outwards from the residue. No end group written: not given here. *: point of attachment. C20 diacid = O=C(O)CCCCCCCCCCCCCCCCCCC(=O)*; C18 diacid = O=C(O)CCCCCCCCCCCCCCCCC(=O)*; γGlu = O=C(O)[C@H](CCC(=O)[*:2])N[*:1]; αMe4Pal = C[C@](N)(Cc1ccncc1)C(=O)O; 4Pal = N[C@@H](Cc1ccncc1)C(=O)O; αMeL = CC(C)C[C@](C)(N)C(=O)O; Orn = NCCC[C@H](N)C(=O)O; Dab = NCC[C@H](N)C(=O)O; AEEA = NCCOCCOCC(=O)O; Aib = CC(C)(N)C(=O)O

Tests used:
Assay type in all cases: cell-based
hGIPR [1] = biological target: T1, hGIPR (Homo sapiens, UniProt P48546); assay: Functional cAMP activity in the presence of 1% HSA; conditions: read-out: cAMP Rel EC50, hGIPR
T1 sequence (P48546 22-466): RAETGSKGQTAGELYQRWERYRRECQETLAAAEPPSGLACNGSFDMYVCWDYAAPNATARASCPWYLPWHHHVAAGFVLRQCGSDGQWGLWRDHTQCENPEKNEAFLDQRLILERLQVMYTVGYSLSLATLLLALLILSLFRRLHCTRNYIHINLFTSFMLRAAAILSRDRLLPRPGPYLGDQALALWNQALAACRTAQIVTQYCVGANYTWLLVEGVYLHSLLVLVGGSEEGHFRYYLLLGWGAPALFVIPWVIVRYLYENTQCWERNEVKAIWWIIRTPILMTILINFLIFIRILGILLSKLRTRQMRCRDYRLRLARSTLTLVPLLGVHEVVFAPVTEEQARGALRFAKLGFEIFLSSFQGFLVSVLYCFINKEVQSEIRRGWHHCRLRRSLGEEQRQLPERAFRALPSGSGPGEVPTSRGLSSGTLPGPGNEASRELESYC

hGLP-1R [2] = biological target: T2, hGLP-1R (Homo sapiens, UniProt P43220); assay: Functional cAMP activity in the presence of 1% HSA; conditions: read-out: cAMP Rel EC50, hGLP-1R
human GcgR = human GcgR (Homo sapiens, UniProt P47871); assay: Functional cAMP activity in the presence of 1% HSA; conditions: read-out: cAMP Rel EC50, hGcgR
hGIPR [3] = biological target: T1, hGIPR; assay: Functional cAMP activation in the presence of 0.1% casein (no HSA); conditions: in the presence of 0.1% casein (no HSA); geometric mean; read-out: Relative cAMP EC50, hGIPR;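 as to Relative cAMP EC50, hGIPR: intracellular cAMP rise after 30 min at 37 °C read by HTRF against a standard curve, scaled between buffer alone (0%) and top control ligand concentration (100%), four-parameter fit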;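 as to Relative cAMP EC50, hGLP-1R: intracellular cAMP rise after 30 min at 37 °C read by HTRF, normalized between buffer only (0%) and maximal control ligand (100%), four-parameter variable-slope fit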;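 as to Relative cAMP EC50, hGcgR: intracellular cAMP rise after 30 min at 37 °C, read by HTRF against a cAMP standard curve, scaled from buffer only (0%) to maximal control ligand response (100%)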
hGLP-1R [4] = biological target: T2, hGLP-1R; assay: as above; conditions: in the presence of 0.1% casein (no HSA); geometric mean; read-out: Relative cAMP EC50, hGLP-1R
hGcgR = hGcgR (Homo sapiens, UniProt P47871); assay: as above; conditions: in the presence of 0.1% casein (no HSA); geometric mean; read-out: Relative cAMP EC50, hGcgR;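 also: intracellular cAMP rise after 30 min at 37 °C, read by HTRF against a cAMP standard curve, scaled from buffer only (0%) to maximal control ligand response (100%)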
human GLP1-R = human GLP1-R (Homo sapiens, UniProt P43220); assay: GLP1-R internalization assay in HEK293 cells; conditions: for EC50: HEK293 cells expressing SNAP-GLP-1R, read-out: GLP1R Internalization EC50; for Internalization % TOP: normalized to maximum concentration of GLP-1 (100%)
human GLP1-R, sequence (P43220 24-463): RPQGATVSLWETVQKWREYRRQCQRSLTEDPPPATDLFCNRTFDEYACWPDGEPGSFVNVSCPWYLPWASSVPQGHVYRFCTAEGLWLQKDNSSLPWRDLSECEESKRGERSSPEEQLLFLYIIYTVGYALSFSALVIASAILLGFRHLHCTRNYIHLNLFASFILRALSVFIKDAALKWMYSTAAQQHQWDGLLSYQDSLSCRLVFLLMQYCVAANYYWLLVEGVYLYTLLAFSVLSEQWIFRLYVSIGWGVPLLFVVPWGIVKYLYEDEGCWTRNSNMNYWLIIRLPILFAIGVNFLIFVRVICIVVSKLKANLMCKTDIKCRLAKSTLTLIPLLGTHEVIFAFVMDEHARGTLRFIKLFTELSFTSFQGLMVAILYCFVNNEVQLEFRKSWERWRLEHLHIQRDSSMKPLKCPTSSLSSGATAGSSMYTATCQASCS

T2 sequence (P43220 24-463): as above
human GcgR, sequence (P47871 26-477): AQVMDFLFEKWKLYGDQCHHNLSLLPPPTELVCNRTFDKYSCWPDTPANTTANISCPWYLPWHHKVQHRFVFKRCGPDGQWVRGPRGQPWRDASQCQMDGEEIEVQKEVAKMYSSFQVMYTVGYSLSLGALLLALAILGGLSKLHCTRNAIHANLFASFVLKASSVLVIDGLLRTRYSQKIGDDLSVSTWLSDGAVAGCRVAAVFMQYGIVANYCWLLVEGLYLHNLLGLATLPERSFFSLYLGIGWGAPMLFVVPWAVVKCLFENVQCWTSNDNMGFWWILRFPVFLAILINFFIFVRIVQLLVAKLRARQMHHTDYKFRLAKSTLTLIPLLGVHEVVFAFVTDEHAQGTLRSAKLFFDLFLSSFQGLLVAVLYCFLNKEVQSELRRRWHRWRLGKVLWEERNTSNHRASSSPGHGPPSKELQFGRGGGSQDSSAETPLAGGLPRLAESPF
hGcgR, sequence (P47871 26-477): as above

Substance	EC50 (hGIPR [1]) [µM]	EC50 (hGLP-1R [2]) [µM]	EC50 (human GcgR) [µM]	EC50 (hGIPR [3]) [µM]	EC50 (hGLP-1R [4]) [µM]	EC50 (hGcgR) [µM]	EC50 (human GLP1-R) [µM]	Internalization % TOP (human GLP1-R) [%]
H-Y[Aib]QGTFTSD[4Pal]SR[αMeL]LDKK([AEEA-γGlu-C18 diacid])AQ[Aib]AFIEYLLAGGPSSGAPPPSGE-NH2 [Example 113]	0.0323	0.467	2.09	0.00024	0.00393	0.012	0.0395	64.6
H-Y[Aib]QGTFTSD[4Pal]SR[αMeL]LDKK([AEEA-γGlu-C18 diacid])AQ[Aib]AFIEYLLE[Aib]GPSSGAPPPSGE-NH2 [Example 114]	0.0196	1.37	1.12	0.00014	0.00638	0.00563	0.0472	62.9
H-Y[Aib]QGTFTSD[4Pal]S[Orn][αMeL]LDKK([AEEA-γGlu-C18 diacid])AQ[Aib]AFIEWLLEGGPSSGEPPPSGE-NH2 [Example 115]	0.0739	1.46	2.21	0.000457	0.0076	0.0106	0.255	56.5
H-Y[Aib]QGTFTSD[4Pal]S[Orn][αMeL]LDKK([AEEA-γGlu-C18 diacid])AQ[αMe4Pal]AFIEYLIE[Aib]GESSGAPPPSGE-NH2 [Example 222]	0.0525	0.753	0.44	0.000228	0.00364	0.00233	0.0346	52.4
Y[Aib]QGTFTSDFSK[αMeL]LDKK([AEEA-γGlu-C18 diacid])AQ[Aib]AFIEYLLEGGPSSGAPPPSEG-NH2 [Example 48]	0.0469	0.57	0.728	0.00027	0.00299	0.0038	0.044	55.2
Y[Aib]QGTFTSDFSK[αMeL]LDKK([AEEA-γGlu-C18 diacid])AQ[Aib]QFIEYLLAGGPSSGEPPPSEG-NH2 [Example 26]	0.0354	0.623	0.98	0.0002	0.00344	0.00482	0.0961	75.6
Y[Aib]QGTFTSDFS[Dab][αMeL]LDKK([AEEA-γGlu-C18 diacid])AQ[Aib]AFIEYLLEGGPSSGAPPPGGS-NH2 [Example 67]	0.0733	0.683	0.781	0.00034	0.00407	0.0037	0.0509	31.1
Y[Aib]QGTFTSDFS[Orn][αMeL]LDKK([AEEA-AEEA-γGlu-C18 diacid])AQ[Aib]AFIEYLLE[dA]GPSSGEPPPSEG-NH2 [Example 116]	0.0404	0.401	0.882	0.000382	0.00783	0.00396	0.0807	46.2
Y[Aib]QGTFTSDFS[Orn][αMeL]LDKK([AEEA-AEEA-γGlu-C18 diacid])AQ[Aib]AFIEYLLE[dA]GPSSG[4Pal]PPPSGS-NH2 [Example 254]	0.0214	0.265	0.767	0.000121	0.00308	0.0049	0.0319	47.8
Y[Aib]QGTFTSDFS[Orn][αMeL]LDKK([AEEA-γGlu-C18 diacid])AQ[Aib]AFIEYLLEGGPSSGAPPPSEG-NH2 [Example 50]	0.0696	1.11	1.04	0.00029	0.00465	0.00425	0.0301	31.1
Y[Aib]QGTFTSD[4Pal]SK[αMeL]LDKK([AEEA-γGlu-C20 diacid])AQ[Aib]AFIEYLLAGGPSSGEPPPSGE-NH2 [Example 28]	0.0638	0.686	1.55	0.000255	0.00368	0.0126	0.0818	76.2
